Values after ≈ are worked out from the molar mass of the structure shown.
How the values were obtained:
[1] = target: T1, α-glucosidase (AG) type I from Saccharomyces cerevisiae (Saccharomyces cerevisiae, UniProt P53341); experiment: Kinetic study on AG (Ki, type of inhibition); assay type: biochemical; settings: for α-Glucosidase Inhibition Type: Lineweaver–Burk, abbreviated M, NC in Table S1; for Ki: nonlinear regression of enzyme inhibition kinetics
T1 construct: purchased Sigma-Aldrich L-SLBX6245 (printed); host or cells: Saccharomyces cerevisiae
T1 sequence (P53341 whole entry): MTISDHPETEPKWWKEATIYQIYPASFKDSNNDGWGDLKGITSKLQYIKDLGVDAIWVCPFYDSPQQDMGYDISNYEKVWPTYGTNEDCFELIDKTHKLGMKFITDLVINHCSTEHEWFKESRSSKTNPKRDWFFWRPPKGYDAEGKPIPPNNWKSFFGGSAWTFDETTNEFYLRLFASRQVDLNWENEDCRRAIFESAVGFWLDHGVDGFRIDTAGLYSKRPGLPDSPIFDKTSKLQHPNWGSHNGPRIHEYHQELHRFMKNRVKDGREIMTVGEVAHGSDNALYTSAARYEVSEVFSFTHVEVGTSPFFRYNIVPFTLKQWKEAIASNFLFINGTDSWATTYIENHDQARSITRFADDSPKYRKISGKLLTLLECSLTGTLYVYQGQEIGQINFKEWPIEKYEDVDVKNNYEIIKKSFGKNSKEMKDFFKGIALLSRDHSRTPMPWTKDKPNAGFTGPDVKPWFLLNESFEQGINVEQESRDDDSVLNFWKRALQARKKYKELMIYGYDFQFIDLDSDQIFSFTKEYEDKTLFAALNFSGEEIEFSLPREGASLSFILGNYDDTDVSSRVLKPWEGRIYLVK
From the text: (§1) The enzymes used in this study were pancreatic lipase type II (PL) from porcine pancreas (100–400 units/mg protein, L-SLBD2433V, EC. 3.1.1.3, Sigma-Aldrich, San Luis, MO, USA) and α-glucosidase (AG) type I from Saccharomyces cerevisiae (lyophilized powder, ≥10 units/mg protein, L-SLBX6245, EC 3.2.1.20, Sigma-Aldrich, San Luis, MO, USA). 4-nitrophenyl dodecanoate (Sigma-Aldrich, San Luis, MO, USA) was used as the substrate for PL while 4-nitrophenyl-α-D-glucopyranoside (Sigma-Aldrich, San Luis, MO, USA) for AG. Absorbance readings were performed in a Multiskan GO microplate reader (Thermo Scientific®, Waltham, MA, USA).
(§2) Kinetic studies to determine the type of inhibition were performed with PL and AG using a methodology the same as that described in the inhibitory activity assays. […] Five substrate concentrations were used for each of the enzymes in the range between 12.5 to 200 μM p-nitrophenyl dodecanoate for PL and 25 to 800 μM for p-nitrophenyl-α-D-glucopyranoside in AG. Kinetic experiments were performed in triplicate in two independent experiments. Inhibition constants (Ki) were calculated from (substrate) vs reaction rate curves using nonlinear regression of the enzyme inhibition kinetic function. Additionally, the inhibition mechanism was graphically determined by applying the double reciprocal Lineweaver–Burk regression function.

[2] = target: T2, pancreatic lipase type II (PL) from porcine pancreas (Sus scrofa, UniProt P00591); experiment: Kinetic study on PL (Ki, type of inhibition); assay type: biochemical; settings: for Ki: nonlinear regression of enzyme inhibition kinetics; for Pancreatic Lipase Inhibition Type: Lineweaver–Burk, abbreviated UC, C, NC, M in Table S1
T2 construct: purchased Sigma-Aldrich L-SLBD2433V (printed); host or cells: porcine pancreas
T2 sequence (P00591 1-450): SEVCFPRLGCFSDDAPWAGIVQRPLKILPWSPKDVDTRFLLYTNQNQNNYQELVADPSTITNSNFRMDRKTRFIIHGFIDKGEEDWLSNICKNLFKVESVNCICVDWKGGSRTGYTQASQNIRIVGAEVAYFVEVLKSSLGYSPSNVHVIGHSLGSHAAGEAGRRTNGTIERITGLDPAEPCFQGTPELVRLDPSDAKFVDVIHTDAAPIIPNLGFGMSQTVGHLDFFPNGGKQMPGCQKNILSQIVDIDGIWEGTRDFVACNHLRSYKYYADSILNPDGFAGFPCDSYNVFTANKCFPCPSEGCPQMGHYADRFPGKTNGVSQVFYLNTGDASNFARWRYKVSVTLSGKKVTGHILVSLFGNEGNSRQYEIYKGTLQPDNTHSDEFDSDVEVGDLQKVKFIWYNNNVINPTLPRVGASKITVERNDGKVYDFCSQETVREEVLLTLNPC
From the text: as §1, §2

[3] = target: T2, pancreatic lipase type II (PL) from porcine pancreas; experiment: PL inhibition assay; assay type: biochemical; settings: p-nitrophenyl dodecanoate substrate, pH 8.4, 37 °C; NA: not active
From the text: as §1
Determination of enzymatic inhibition of the identified compounds against the PL enzyme was carried out following the methodology described in the literature with some modifications. The concentrations were evaluated for compounds from 300 to 6.25 µM. […] In 96-well boxes, 30 μL of extract or compound stock solution, 30 μL of PL solution (200 U/mL), and 160 μL of Tris-HCl buffer (0.1 M, pH: 8.4) were mixed. The mixture obtained was pre-incubated for 30 min at 37 °C. Subsequently, 30 μL of p-nitrophenyl dodecanoate (100 μM) were added to complete a final volume of 250 μL and incubated for 40 min at 37 °C. After the incubation time, the absorbance was measured at 405 nm. All assays were performed in triplicate in two independent assays. IC50 values were estimated by nonlinear regression analysis. Statistically significant differences in biological effects of inhibitors (compounds) were analyzed and compared using the ANOVA test, supplemented by Tukey HSD post hoc analysis. All reported data corresponded to the average of three repetitions ± SD, and the statistical significance considered was p < 0.05.

[4] = tested on: chemokine receptor CCR5; design: method as in PMID 14561515; settings: cited from earlier work
[5] = target: T1, α-glucosidase (AG) type I from Saccharomyces cerevisiae; experiment: biochemical; settings: α-Glucosidase IC50, p-nitrophenyl-α-D-glucopyranoside substrate, pH 7.2, 37 °C; NA: not active
From the text: as §1
Determination of enzyme inhibition of the compounds identified against the AG enzyme was carried out following the methodology described in the literature with some modifications. The concentrations were evaluated for compounds from 300 to 6.25 µM. […] In 96-well boxes, 10 μL of stock solution of each extract or compound, 20 μL of GA solution (0.5 U/mL), and 200 μL of phosphate buffer (0.1 M, pH: 7.2) were mixed. The mixture obtained was pre-incubated for 30 min at 37 °C. […] After the reaction time, the absorbance at 405 nm was measured. […] Statistically significant differences in the biological effects of inhibitors (compounds) were analyzed and compared using ANOVA, supplemented by Tukey HSD post hoc analysis. […]

[6] = tested on: AG; settings: cited from earlier work

Ki [2] [µM]	IC50 [3] [µM]	SMILES	Pancreatic Lipase Inhibition Type [2]	other results
7.88	33.8 ± 5.95	CC(C)=CCC/C(C)=C/C(=O)c1cc(C(=O)O)cc(CC=C(C)C)c1O [Compound 1, (2′E) cumenic acid]		
8.46	36.2 ± 5.05	CC(C)=CCC/C(C)=C\C(=O)c1cc(C(=O)O)cc(CC=C(C)C)c1O [Compound 2, (2′Z) cumenic acid]		melting point: 132 to 134 °C
18	36.3 ± 6.5	CC(C)=CCCC1(C)C=Cc2cc(C(=O)O)cc(CC=C(C)C)c2O1 (stereo not drawn) [Compound 3, gaudichaudianic acid]	Competitive	
48.3	48.3 ± 2.57	CC(C)=CC(=O)c1ccccc1O [Compound 5, 1-(2-Hydroxy-phenyl)-3-methyl-but-2-en-1-one]	Noncompetitive	
42.8	55.8 ± 2.98	COC(=O)c1cc(CC=C(C)C)c(O)c(C(=O)C=C(C)CCC=C(C)C)c1 [Compound 8, 3-(3,7-Dimethyl-octa-2,6-dienoyl)-4-hydroxy-5-(3-methyl-but-2-enyl)-benzoic acid methyl ester]	Mixed	

Continued, molecule first:

SMILES	Ki [2] [µM]	IC50 [3] [µM]	Pancreatic Lipase Inhibition Type [2]	other results
C[C@H]1O[C@H](O[C@H]2[C@H](O)[C@@H](O)[C@@H](O[C@H]3[C@H](O)[C@@H](O)C(O)O[C@@H]3CO)O[C@@H]2CO)[C@H](O)[C@@H](O)[C@@H]1N[C@H]1C=C(CO)[C@@H](O)[C@H](O)[C@H]1O (stereo partly drawn) [Acarbose, reference compound]				α-Glucosidase Inhibition Type [1]: Competitive
COc1ccc(C(=O)O)cc1CC=C(C)C [Compound 4, 4-methoxy-3-(3′-methyl-2’-butenyl)benzoic acid]				ability to bind to the chemokine receptor CCR5 [4]: confirmed; melting point: 112 to 113 °C; Pancreatic Lipase IC50 [3]: did not show any activity
CCCCC1(O)CC(C)(C)Oc2ccccc21 (stereo not drawn) [Compound 6, 4-Butyl-2,2-dimethyl-chroman-4-ol]	28.3	28.3 ± 2.9	Noncompetitive	α-Glucosidase Inhibition Type [1]: mixed-type; Ki [1]: 51.3 µM; IC50 [5]: 154 ± 4.65 µM
CC(C)=CCCC(C)=CC(O)c1ccc2c(c1)C=CC(C)(C)O2 (stereo not drawn) [Compound 7, 1-(2,2-Dimethyl-2H-chromen-6-yl)-3,7-dimethyl-octa-2,6-dien-1-ol]	25.4	33.1 ± 5.28	Competitive	α-Glucosidase Inhibition Type [1]: Noncompetitive; Ki [1]: 136 µM; IC50 [5]: 134 ± 5.6 µM
CCCCCCCCCCC[C@@H](C[C@@H]1OC(=O)[C@H]1CCCCCC)OC(=O)[C@H](CC(C)C)NC=O [Orlistat, reference compound]			Irreversible	
CO[C@H]1C=CC(=O)N1C(=O)CCc1ccccc1 [chaplupyrrolidone B]				IC50 [6]: 430 µM
O=C(/C=C/C=C/c1ccc2c(c1)OCO2)N1CCCCC1 [piperine]				IC50 on AG [6]: 147 µg/mL (≈ 515 µM)

Source: article PMC9460781, “In Vitro and In Silico Study of the α-Glucosidase and Lipase Inhibitory Activities of Chemical Constituents from Piper cumanense (Piperaceae) and Synthetic Analogs” (Plants, 2022)
